Measured values from patent US7678368B2, “Fucoidan-containing cosmetics” (Takara Bio Inc., priority 1999, dated 2010).

Legend:
C3H/He mice [1] = assay: Trichogenous ratio, Fucoidan Bf combined with carpronium chloride or minoxidil (Example 19); format: in vivo, mouse; settings: for Trichogenous Ratio (%) (Trichogenous Area/Shaved Area): 200 μL once a day, 6 cases; for Trichogenous Ratio (%) (Trichogenous Area/Shaved Area) / Number of Individuals with Trichogenous Ratio of 60% or More: twenty-first day after shaving
Protocol: Male C3H/He mice were purchased from Nippon SLC and used for an experiment from 8 week-old after pre-breeding the mice. The hair on the backside of each mouse was cut with hair clippers, and thereafter shaved with a razor. […] The resulting ethanol solution was applied onto the above hair-cut site of the backside of the mice in an amount of 200 μL per mouse. To the control group, 30% ethanol solution was similarly applied. The mice were administered once a day, for consecutive days. The administered sites were observed over the passage of time from the day of the beginning of administration (the day following the shaving), and the trichogenous area was determined on the twenty-first day after shaving and expressed as the ratio (%) to the shaved area.

C3H/He mice [2] = assay: Hair restoring effect of sulfated monosaccharides, scoring as in Example 13(3) (Example 14(2)); format: in vivo, mouse; settings: 3% in 50% ethanol, 200 μL once a day, score 0-4
Protocol: The administered site was observed over the passage of time from the beginning of administration, and a change in the skin color tone was evaluated by scoring. Specifically, the scoring criteria were defined as follows: Score 0: no change in the skin color, Score 1: the skin color being changed to blue, Score 2: the skin color being changed to black-blue to gray, Score 3: trichogenous state being observed, and Score 4: the state before the hair cutting being almost restored. (3) Male C3H/He mice were purchased from Nippon SLC and used for an experiment from 8 week-old after pre-breeding the mice. The hair on the backside of each mouse was cut with hair clippers, and thereafter shaved with a razor. (2) The hair restoring effect of the sulfated glucose prepared in item (1) of Example 14 was studied in the same manner as in item (3) of Example 13. Here, the sulfated glucose was dissolved in 50% ethanol in a concentration of 3%, and the resulting solution was applied onto the backside of the mice once a day in an amount of 200 μL per mouse. To the control group, 50% ethanol alone was applied. […] In addition, similar tests were carried out for the sulfated fucose, the sulfated mannose, the sulfated galactose, the sulfated xylose, the sulfated 2-deoxy-glucose and the sulfated talose.

[3] = tested on: whiskers with the hair follicles of C3H/He mice; assay: Culture of mouse whiskers with hair follicles, length of grown whisker (Examples 15-18); format: cell-based; settings: whiskers of 6 day-old mice (Table 14)
Description: (1) Two day-old male C3H/He mice were purchased from Nippon SLC together with the mother mice and used for an experiment from 5 day-old. The mice were sacrificed by exsanguination, and the whiskers together with the subcutaneous tissues were collected using scissors and tweezers. Further, the whiskers with the hair follicles were separated in a petri dish under the microscope according to the method by Ogawa et al. (J. Invest. Dermatol 103: 306-309, 1994). Fourteen to sixteen whiskers were collected from the right and left sides per mouse. […] Here, the given concentrations of each sample added are respectively expressed as the concentration per mL medium (mg/mL) in Table 10. […] The length of whisker was determined to the order of 0.1 mm before the beginning and after the termination of the culture under the microscope using a caliper. […] In addition, Student's t-test was used for test of significance, and P value was determined against the control group. […] The hair restoring effects for the fucoidan derived from Kjellmaniella crassifolia described in item (1) of Example 1 and 7-12SFd-F described in item (3) of Example 2 were evaluated in the same manner as in item (1) of Example 15. […] The hair restoring effects for Fucoidan Bf described in item (1) of Example 16 and F-rich fucoidan described in item (2) of Example 16 were evaluated in the same manner as in item (1) of Example 15. […]

Question: COC(=O)CCC[N+](C)(C)C.[Cl-] [Carpronium Chloride, carpronium chloride] was tested. Which “Trichogenous Ratio (%) (Trichogenous Area/Shaved Area)” value (C3H/He mice [1]; 0.5% in 30% ethanol) did it give?
Answer: 23.9 ± 4.9%

Question: What about the “Number of Individuals with Trichogenous Ratio of 60% or More” value (C3H/He mice [1]; 0.5% in 30% ethanol) of the same molecule?
Answer: 0/6

Question: What about the hair restoring effect (C3H/He mice [1]; administration by application alone (0.5%)) of the same molecule?
Answer: No hair restoring effect

Question: Nc1cc(N2CCCCC2)nc(N)[n+]1[O-] [Minoxidil, minoxidil] was tested. Which “Trichogenous Ratio (%) (Trichogenous Area/Shaved Area)” value (C3H/He mice [1]; 0.1% in 30% ethanol) did it give?
Answer: 42.9 ± 5.5%

Question: And the “Number of Individuals with Trichogenous Ratio of 60% or More” value (C3H/He mice [1]; 0.1% in 30% ethanol)?
Answer: 1/6

Question: What about the “Trichogenous Ratio (%) (Trichogenous Area/Shaved Area)” value (C3H/He mice [1]; 1% in 30% ethanol) of the same molecule?
Answer: 69.1 ± 13.9%

Question: What about the “Number of Individuals with Trichogenous Ratio of 60% or More” value (C3H/He mice [1]; 1% in 30% ethanol) of the same molecule?
Answer: 4/6

Question: Which results are given for “sulfated (—SO3—Na^+) D-(+)-glucose [Sulfated Glucose]”?
Answer: Average Score (C3H/He mice [2]; duration of administration 11 days): 0.6; Average Score (C3H/He mice [2]; duration of administration 12 days): 0.6; Average Score (C3H/He mice [2]; duration of administration 13 days): 1.0; Average Score (C3H/He mice [2]; duration of administration 14 days): 1.6; Average Score (C3H/He mice [2]; duration of administration 15 days): 1.8; Length of Grown Whisker (mm) (Average Value ± Standard Error) ([3]; 0.1 mg/mL): 0.39 ± 0.11 mm; Length of Grown Whisker (mm) (Average Value ± Standard Error) ([3]; 1 mg/mL): 1.31 ± 0.31 mm
